Results from paper PMC4168798 (ACS Chemical Biology, 2014).

Assays:
KSBcl-2 = molecular target: T1, KSBcl-2 (Human herpesvirus 8 type P, UniProt F5HGJ3); assay: direct fluorescence anisotropy binding; set-up: species or system Kaposi sarcoma herpesvirus
T1 sequence (F5HGJ3 1-150): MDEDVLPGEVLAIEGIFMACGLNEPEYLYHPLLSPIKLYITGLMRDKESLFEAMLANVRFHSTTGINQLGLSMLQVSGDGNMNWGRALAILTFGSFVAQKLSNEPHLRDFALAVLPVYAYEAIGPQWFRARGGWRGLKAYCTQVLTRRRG

Mcl-1 [1] = molecular target: T2, Mcl-1 (Homo sapiens, UniProt Q07820); assay: competition fluorescence anisotropy vs fluoresceinated Bim; conditions: biochemical competition binding experiments; four other human Bcl-2 paralogs
T2 sequence (Q07820 172-327 limits assumed): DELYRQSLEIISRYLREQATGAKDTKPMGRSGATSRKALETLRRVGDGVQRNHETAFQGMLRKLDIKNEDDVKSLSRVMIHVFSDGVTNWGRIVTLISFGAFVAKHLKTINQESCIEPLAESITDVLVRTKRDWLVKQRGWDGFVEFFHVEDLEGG

Mcl-1 [2] = molecular target: T2, Mcl-1; assay: direct fluorescence anisotropy binding
Bcl-2 [3] = molecular target: Bcl-2 (Homo sapiens, UniProt P10415); assay: direct fluorescence anisotropy binding
Sequence of Bcl-2 (Homo sapiens, UniProt P10415) (P10415 1-217 limits assumed): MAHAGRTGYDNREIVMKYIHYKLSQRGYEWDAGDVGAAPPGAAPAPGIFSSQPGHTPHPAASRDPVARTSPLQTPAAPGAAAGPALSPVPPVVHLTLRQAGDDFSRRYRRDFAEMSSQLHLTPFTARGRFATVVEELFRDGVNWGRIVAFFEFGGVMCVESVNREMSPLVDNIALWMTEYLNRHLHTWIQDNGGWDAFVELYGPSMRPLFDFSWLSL

Bcl-xL [4] = conditions: NoxaA BH3 peptide from murine Noxa; cited from earlier work
Bcl-2 [5] = conditions: NoxaA BH3 peptide from murine Noxa; cited from earlier work
Bcl-w [6] = conditions: NoxaA BH3 peptide from murine Noxa; cited from earlier work
Bfl-1 [7] = conditions: NoxaA BH3 peptide from murine Noxa; cited from earlier work
Bfl-1 [8] = molecular target: T3, Bfl-1 (Homo sapiens, UniProt Q16548); assay: direct fluorescence anisotropy binding
T3 sequence (Q16548 1-151 limits assumed): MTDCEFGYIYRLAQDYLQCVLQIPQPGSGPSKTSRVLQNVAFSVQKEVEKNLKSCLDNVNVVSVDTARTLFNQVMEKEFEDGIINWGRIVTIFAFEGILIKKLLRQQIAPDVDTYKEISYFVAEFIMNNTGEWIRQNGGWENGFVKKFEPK

Bcl-w [9] = molecular target: T4, Bcl-w (Homo sapiens, UniProt Q92843); assay: direct fluorescence anisotropy binding
T4 sequence (Q92843 1-164 limits assumed): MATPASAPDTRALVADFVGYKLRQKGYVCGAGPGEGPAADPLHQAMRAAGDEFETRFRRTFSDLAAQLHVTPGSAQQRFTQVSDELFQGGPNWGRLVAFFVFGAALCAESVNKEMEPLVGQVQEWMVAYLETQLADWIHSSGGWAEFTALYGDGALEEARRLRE

Bcl-xL [10] = molecular target: Bcl-xL (Homo sapiens, UniProt Q07817); assay: direct fluorescence anisotropy binding
Sequence of Bcl-xL (Homo sapiens, UniProt Q07817) (Q07817 1-209 limits assumed): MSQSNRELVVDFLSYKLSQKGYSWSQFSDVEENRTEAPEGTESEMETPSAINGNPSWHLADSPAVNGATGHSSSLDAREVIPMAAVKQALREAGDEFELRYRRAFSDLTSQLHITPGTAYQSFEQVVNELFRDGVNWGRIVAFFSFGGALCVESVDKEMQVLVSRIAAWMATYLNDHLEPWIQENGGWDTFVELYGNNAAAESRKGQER

With `CC[C@H](C)[C@H](NC(=O)[C@H](CCC(=O)O)NC(=O)[C@H](CC(=O)O)NC(=O)CNC(=O)[C@H](CC(C)C)NC(=O)[C@H](CCCNC(=N)N)NC(=O)[C@H](CCCNC(=N)N)NC(=O)[C@H](CC(C)C)NC(=O)CNC(=O)[C@H](CCC(N)=O)NC(=O)[C@@H](NC(=O)[C@H](CCSC)NC(=O)[C@H](Cc1c[nH]c2ccccc12)NC(=O)[C@@H](NC(=O)[C@H](CCC(=O)O)NC(=O)[C@@H]1CCCN1C(=O)[C@H](CCCNC(=N)N)NC(C)=O)[C@@H](C)CC)[C@@H](C)O)C(=O)N[C@@H](CC(N)=O)C(=O)N[C@@H](C)C(=O)N[C@@H](Cc1ccc(O)cc1)C(=O)N[C@@H](Cc1ccc(O)cc1)C(=O)N[C@@H](C)C(=O)N[C@@H](CCCNC(=N)N)C(N)=O` [MS1] the Kd (KSBcl-2) was 2.9 ± 0.68 nM and the “specificity for Mcl-1 over Bcl-xL, Bcl-2, Bcl-w and Bfl-1” value (Mcl-1 [1]) was no less than 40 fold.
Work on `CC[C@H](C)[C@H](NC(=O)[C@H](CCC(=O)O)NC(=O)[C@H](CC(=O)O)NC(=O)CNC(=O)[C@H](CC(C)C)NC(=O)[C@H](CCCNC(=N)N)NC(=O)[C@H](CCC(N)=O)NC(=O)[C@H](CC(C)C)NC(=O)[C@H](CO)NC(=O)[C@H](CCC(N)=O)NC(=O)[C@@H](NC(=O)[C@H](CC(C)C)NC(=O)[C@H](Cc1c[nH]c2ccccc12)NC(=O)[C@@H](NC(=O)[C@H](CCC(=O)O)NC(=O)[C@@H]1CCCN1C(=O)[C@H](CCCNC(=N)N)NC(C)=O)[C@@H](C)CC)[C@@H](C)O)C(=O)N[C@@H](CC(N)=O)C(=O)N[C@@H](C)C(=O)N[C@@H](Cc1ccc(O)cc1)C(=O)N[C@@H](Cc1ccc(O)cc1)C(=O)N[C@@H](C)C(=O)N[C@@H](CCCNC(=N)N)C(N)=O` [MS2] yielded a Kd (KSBcl-2) of less than 1 nM.
Compound `CC[C@H](C)[C@H](NC(=O)[C@H](CCC(=O)O)NC(=O)[C@@H]1CCCN1C(=O)[C@@H](N)CCCNC(=N)N)C(=O)N[C@@H](Cc1c[nH]c2ccccc12)C(=O)N[C@H](C(=O)N[C@H](C(=O)N[C@@H](CCC(N)=O)C(=O)N[C@@H](CCC(=O)O)C(=O)N[C@@H](CC(C)C)C(=O)N[C@@H](CCCNC(=N)N)C(=O)N[C@@H](CCCNC(=N)N)C(=O)N[C@@H](CC(C)C)C(=O)NCC(=O)N[C@@H](CC(=O)O)C(=O)N[C@@H](CCC(=O)O)C(=O)N[C@@H](Cc1ccccc1)C(=O)N[C@@H](CC(N)=O)C(=O)N[C@@H](C)C(=O)N[C@@H](Cc1ccc(O)cc1)C(=O)N[C@@H](Cc1ccc(O)cc1)C(=O)N[C@@H](C)C(=O)N[C@@H](CCCNC(=N)N)C(N)=O)[C@@H](C)O)[C@@H](C)CC` [Bim_A2eT_I3dL] has a Kd (Mcl-1 [2]) of less than 1 nM.
In the case of `CC[C@H](C)[C@H](NC(=O)[C@H](CCC(=O)O)NC(=O)[C@H](CC(=O)O)NC(=O)CNC(=O)[C@H](CC(C)C)NC(=O)[C@H](CCCNC(=N)N)NC(=O)[C@H](CCC(N)=O)NC(=O)[C@H](CC(C)C)NC(=O)[C@H](Cc1c[nH]cn1)NC(=O)[C@H](CCC(N)=O)NC(=O)[C@@H](NC(=O)[C@H](CC(C)C)NC(=O)[C@H](Cc1c[nH]c2ccccc12)NC(=O)[C@@H](NC(=O)[C@H](CCC(=O)O)NC(=O)[C@@H]1CCCN1C(=O)[C@@H](N)CCCNC(=N)N)[C@@H](C)CC)[C@@H](C)O)C(=O)N[C@@H](CC(N)=O)C(=O)N[C@@H](C)C(=O)N[C@@H](Cc1ccc(O)cc1)C(=O)N[C@@H](Cc1ccc(O)cc1)C(=O)N[C@@H](C)C(=O)N[C@@H](CCCNC(=N)N)C(N)=O` [MS3], the Kd (Mcl-1 [2]) is reported as 2 ± 1.2 nM and the Kd (Bcl-2 [3]) is reported as greater than 3000 nM.
With `CC[C@H](C)[C@H](NC(=O)[C@H](CCCNC(=N)N)NC(=O)[C@H](CCCNC(=N)N)NC(=O)[C@H](CC(C)C)NC(=O)[C@H](CCC(=O)O)NC(=O)[C@H](CCC(N)=O)NC(=O)[C@@H](NC(=O)[C@@H](NC(=O)[C@H](Cc1c[nH]c2ccccc12)NC(=O)[C@@H](NC(=O)[C@H](CCC(=O)O)NC(=O)[C@@H]1CCCN1C(=O)[C@@H](N)CCCNC(=N)N)[C@@H](C)CC)[C@@H](C)CC)[C@@H](C)O)C(=O)NCC(=O)N[C@@H](CC(=O)O)C(=O)N[C@@H](CCC(=O)O)C(=O)N[C@@H](Cc1ccccc1)C(=O)N[C@@H](CC(N)=O)C(=O)N[C@@H](C)C(=O)N[C@@H](Cc1ccc(O)cc1)C(=O)N[C@@H](Cc1ccc(O)cc1)C(=O)N[C@@H](C)C(=O)N[C@@H](CCCNC(=N)N)C(N)=O` [Bim_A2eT] the Kd (Mcl-1 [2]) was less than 1 nM.
For `CC[C@H](C)[C@H](NC(=O)[C@H](CCCCN)NC(=O)[C@H](CCCNC(=N)N)NC(=O)[C@H](CC(C)C)NC(=O)[C@H](CCC(N)=O)NC(=O)[C@H](C)NC(=O)[C@H](C)NC(=O)[C@H](Cc1ccccc1)NC(=O)[C@H](CCC(=O)O)NC(=O)[C@@H]1CCCN1C(=O)[C@@H]1CCCN1C(=O)[C@H](CC(C)C)NC(=O)[C@H](CCC(=O)O)NC(=O)[C@H](C)NC(C)=O)C(=O)NCC(=O)N[C@@H](CC(=O)O)C(=O)N[C@@H](CCCCN)C(=O)N[C@H](C(=O)N[C@@H](Cc1ccc(O)cc1)C(=O)N[C@@H](CS)C(N)=O)C(C)C` [NoxaA], the “no binding to Bcl-xL up to” value (Bcl-xL [4]) is listed as greater than 2500 nM, the “no binding to Bcl-2 up to” value (Bcl-2 [5]) is listed as greater than 2500 nM and the “no binding to Bcl-w up to” value (Bcl-w [6]) is listed as greater than 2500 nM. The “no binding to Bfl-1 up to” value (Bfl-1 [7]) was greater than 2500 nM.
Work on `CC[C@H](C)[C@H](NC(=O)[C@H](CCCNC(=N)N)NC(=O)[C@H](CCCNC(=N)N)NC(=O)[C@H](CC(C)C)NC(=O)[C@H](CCC(=O)O)NC(=O)[C@H](CCC(N)=O)NC(=O)[C@@H](NC(=O)[C@@H](NC(=O)[C@H](Cc1c[nH]c2ccccc12)NC(=O)[C@@H](NC(=O)[C@H](CCC(=O)O)NC(=O)[C@@H]1CCCN1C(=O)[C@@H](N)CCCNC(=N)N)[C@@H](C)CC)[C@@H](C)CC)[C@@H](C)O)C(=O)NCC(=O)N[C@@H](CC(=O)O)C(=O)N[C@@H](CCC(=O)O)C(=O)N[C@H](C(=O)N[C@@H](CC(N)=O)C(=O)N[C@@H](C)C(=O)N[C@@H](Cc1ccc(O)cc1)C(=O)N[C@@H](Cc1ccc(O)cc1)C(=O)N[C@@H](C)C(=O)N[C@@H](CCCNC(=N)N)C(N)=O)[C@@H](C)CC` [Bim_A2eT_F4aI] yielded a Kd (Mcl-1 [2]) of less than 1 nM, a Kd (Bfl-1 [8]) of 7.9 ± 2.1 nM and a Kd (Bcl-w [9]) of 16 ± 4.1 nM. The Kd (Bcl-xL [10]) was 110 ± 62 nM and the Kd (Bcl-2 [3]) was 150 ± 43 nM.
`CC[C@H](C)[C@H](NC(=O)[C@H](CCCNC(=N)N)NC(=O)[C@H](CCCNC(=N)N)NC(=O)[C@H](CC(C)C)NC(=O)[C@H](CCC(=O)O)NC(=O)[C@H](CCC(N)=O)NC(=O)[C@@H](NC(=O)[C@H](CCSC)NC(=O)[C@H](Cc1c[nH]c2ccccc12)NC(=O)[C@@H](NC(=O)[C@H](CCC(=O)O)NC(=O)[C@@H]1CCCN1C(=O)[C@@H](N)CCCNC(=N)N)[C@@H](C)CC)[C@@H](C)O)C(=O)NCC(=O)N[C@@H](CC(=O)O)C(=O)N[C@@H](CCC(=O)O)C(=O)N[C@@H](Cc1ccccc1)C(=O)N[C@@H](CC(N)=O)C(=O)N[C@@H](C)C(=O)N[C@@H](Cc1ccc(O)cc1)C(=O)N[C@@H](Cc1ccc(O)cc1)C(=O)N[C@@H](C)C(=O)N[C@@H](CCCNC(=N)N)C(N)=O` [Bim_A2eT_I2dM] gave a Kd (Mcl-1 [2]) of less than 1 nM.
